Results: ChEMBL document CHEMBL4043168, “The design and SAR of a novel series of 2-aminopyridine based LRRK2 inhibitors” (Bioorg Med Chem Lett, 2017)

Assays:
[1] = molecular target: Calcium/calmodulin-dependent protein kinase type II subunit delta (Homo sapiens) (UniProt Q13557); assay: Inhibition of CaMK2d labeling at conserved Lys2 (DLKPENLLLASK) in human PBMC at 1 uM
[2] = molecular target: Tyrosine-protein kinase Fer (Homo sapiens) (UniProt P16591); assay: Inhibition of FER conserved Lys2 (QEDGGVYSSSGLKQIPIK) in human PBMC at 1 uM
[3] = molecular target: Proto-oncogene tyrosine-protein kinase Src (Homo sapiens) (UniProt P12931); assay: Inhibition of SRC ATP binding site (QGAKFPIKWTAPEAALYGR) in human PBMC at 1 uM
[4] = molecular target: Serine/threonine-protein kinase 24 (Homo sapiens) (UniProt Q9Y6E0); assay: Inhibition of MST3 conserved Lys2 (DIKAANVLLSEHGEVK) in human PBMC at 1 uM
Homo sapiens [5] = organism: Homo sapiens; assay: Inhibition of p70S6K conserved Lys2 (DLKPENIMLNHQGHVK) in human PBMC at 1 uM
[6] = molecular target: Phosphatidylinositol 4,5-bisphosphate 3-kinase catalytic subunit beta isoform (Homo sapiens) (UniProt P42338); assay: Inhibition of PIK3CB ATP binding site (VFGEDSVGVIFKNGDDLRQDMLTLQMLR) in human PBMC at 1 uM
[7] = molecular target: STE20-like serine/threonine-protein kinase (Homo sapiens) (UniProt Q9H2G2); assay: Inhibition of SLK conserved Lys2 (DLKAGNILFTLDGDIK) in human PBMC at 1 uM
[8] = molecular target: Serine/threonine-protein kinase SMG1 (Homo sapiens) (UniProt Q96Q15); assay: Inhibition of SMG1 ATP binding site (DTVTIHSVGGTITILPTKTKPK) in human PBMC at 1 uM
[9] = molecular target: Serine/threonine-protein kinase WNK2 (Homo sapiens) (UniProt Q9Y3S1); assay: Inhibition of Wnk2 ATP binding site (GSFKTVYK) in human PBMC at 1 uM
[10] = molecular target: Serine/threonine-protein kinase LATS2 (Homo sapiens) (UniProt Q9NRM7); assay: Inhibition of LATS2 conserved Lys2 (DIKPDNILIDLDGHIK) in human PBMC at 0.1 uM
[11] = molecular target: T1, Mitogen-activated protein kinase kinase kinase 6 (Homo sapiens) (UniProt O95382); assay: Inhibition of MAP3K6 conserved Lys1 (IAIKEIPER) in human PBMC at 0.1 uM
T1 sequence (whole entry): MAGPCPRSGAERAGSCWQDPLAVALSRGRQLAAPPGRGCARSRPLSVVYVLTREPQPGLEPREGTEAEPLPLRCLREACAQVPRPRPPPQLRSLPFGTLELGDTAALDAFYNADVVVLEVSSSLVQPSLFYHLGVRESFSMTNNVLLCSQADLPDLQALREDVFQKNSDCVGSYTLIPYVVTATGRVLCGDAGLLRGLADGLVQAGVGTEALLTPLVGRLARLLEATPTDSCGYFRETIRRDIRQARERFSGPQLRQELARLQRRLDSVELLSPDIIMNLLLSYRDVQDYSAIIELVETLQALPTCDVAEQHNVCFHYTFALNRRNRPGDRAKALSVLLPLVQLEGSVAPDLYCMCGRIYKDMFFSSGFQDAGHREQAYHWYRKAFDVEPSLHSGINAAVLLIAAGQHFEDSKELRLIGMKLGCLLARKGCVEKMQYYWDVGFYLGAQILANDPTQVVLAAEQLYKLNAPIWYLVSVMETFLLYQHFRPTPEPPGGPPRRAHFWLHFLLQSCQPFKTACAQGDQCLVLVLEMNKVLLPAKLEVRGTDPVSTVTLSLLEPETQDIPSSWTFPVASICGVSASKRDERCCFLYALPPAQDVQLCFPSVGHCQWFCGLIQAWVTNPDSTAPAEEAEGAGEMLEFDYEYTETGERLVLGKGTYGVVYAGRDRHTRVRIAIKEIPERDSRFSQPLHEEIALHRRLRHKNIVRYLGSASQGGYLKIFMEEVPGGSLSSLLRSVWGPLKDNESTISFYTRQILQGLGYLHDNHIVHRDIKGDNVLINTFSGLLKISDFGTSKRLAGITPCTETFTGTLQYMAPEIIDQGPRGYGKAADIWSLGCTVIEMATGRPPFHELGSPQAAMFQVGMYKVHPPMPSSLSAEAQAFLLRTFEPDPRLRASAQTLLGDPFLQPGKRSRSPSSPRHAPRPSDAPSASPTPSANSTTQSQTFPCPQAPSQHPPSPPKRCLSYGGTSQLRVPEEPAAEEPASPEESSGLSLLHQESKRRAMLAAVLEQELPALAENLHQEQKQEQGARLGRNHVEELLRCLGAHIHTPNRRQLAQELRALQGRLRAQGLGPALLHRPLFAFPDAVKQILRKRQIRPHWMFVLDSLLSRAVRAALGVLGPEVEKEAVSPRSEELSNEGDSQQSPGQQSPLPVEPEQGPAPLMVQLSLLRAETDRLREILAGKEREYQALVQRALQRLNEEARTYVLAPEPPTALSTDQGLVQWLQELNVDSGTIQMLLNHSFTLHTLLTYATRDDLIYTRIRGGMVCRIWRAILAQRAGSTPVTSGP

[12] = molecular target: Serine/threonine-protein kinase 24 (Homo sapiens) (UniProt Q9Y6E0); assay: Inhibition of MST3 conserved Lys2 (DIKAANVLLSEHGEVK) in human PBMC at 0.1 uM
Homo sapiens [13] = organism: Homo sapiens; assay: Inhibition of p70S6K conserved Lys2 (DLKPENIMLNHQGHVK) in human PBMC at 0.1 uM
[14] = molecular target: Ribosomal protein S6 kinase alpha-3 (Homo sapiens) (UniProt P51812); assay: Inhibition of RSK2 domain1 activation Loop (LTDFGLSKESIDHEKK) in human PBMC at 0.1 uM
[15] = molecular target: Myosin light chain kinase, smooth muscle (Homo sapiens) (UniProt Q15746); assay: Inhibition of smMLCK conserved Lys2 (QGIVHLDLKPENIMCVNK) in human PBMC at 0.1 uM
[16] = molecular target: T2, STE20-related kinase adapter protein alpha (Homo sapiens) (UniProt Q7RTN6); assay: Inhibition of STLK5 activation loop (YSVKVLPWLSPEVLQQNLQGYDAK) in human PBMC at 0.1 uM
T2 sequence (whole entry): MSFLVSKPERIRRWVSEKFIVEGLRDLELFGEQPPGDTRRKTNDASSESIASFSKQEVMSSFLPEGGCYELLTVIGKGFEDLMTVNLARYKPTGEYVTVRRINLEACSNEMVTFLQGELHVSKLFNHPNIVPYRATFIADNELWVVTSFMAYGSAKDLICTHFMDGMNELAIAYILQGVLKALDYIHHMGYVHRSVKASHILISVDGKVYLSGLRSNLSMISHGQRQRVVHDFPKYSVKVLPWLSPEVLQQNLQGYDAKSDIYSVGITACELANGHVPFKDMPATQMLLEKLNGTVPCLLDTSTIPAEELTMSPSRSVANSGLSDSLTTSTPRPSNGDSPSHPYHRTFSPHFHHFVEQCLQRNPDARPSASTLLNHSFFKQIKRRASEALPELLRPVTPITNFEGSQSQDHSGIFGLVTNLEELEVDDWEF

Serine/threonine-protein kinase 24 (Homo sapiens), sequence (Q9Y6E0 whole entry, looked up): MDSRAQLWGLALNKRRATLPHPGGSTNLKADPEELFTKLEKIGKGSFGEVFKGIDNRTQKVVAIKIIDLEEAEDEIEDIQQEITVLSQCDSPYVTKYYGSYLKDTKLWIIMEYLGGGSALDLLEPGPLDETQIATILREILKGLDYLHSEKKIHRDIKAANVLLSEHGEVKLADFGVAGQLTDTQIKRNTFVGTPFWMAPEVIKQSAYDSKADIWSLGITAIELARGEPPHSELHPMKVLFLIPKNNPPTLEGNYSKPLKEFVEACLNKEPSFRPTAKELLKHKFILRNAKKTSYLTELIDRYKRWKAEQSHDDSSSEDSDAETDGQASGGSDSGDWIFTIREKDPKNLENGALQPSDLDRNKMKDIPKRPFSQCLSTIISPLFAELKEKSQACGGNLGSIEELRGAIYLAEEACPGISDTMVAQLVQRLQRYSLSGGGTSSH
Phosphatidylinositol 4,5-bisphosphate 3-kinase catalytic subunit beta isoform (Homo sapiens), sequence (P42338 whole entry, looked up, canonical isoform): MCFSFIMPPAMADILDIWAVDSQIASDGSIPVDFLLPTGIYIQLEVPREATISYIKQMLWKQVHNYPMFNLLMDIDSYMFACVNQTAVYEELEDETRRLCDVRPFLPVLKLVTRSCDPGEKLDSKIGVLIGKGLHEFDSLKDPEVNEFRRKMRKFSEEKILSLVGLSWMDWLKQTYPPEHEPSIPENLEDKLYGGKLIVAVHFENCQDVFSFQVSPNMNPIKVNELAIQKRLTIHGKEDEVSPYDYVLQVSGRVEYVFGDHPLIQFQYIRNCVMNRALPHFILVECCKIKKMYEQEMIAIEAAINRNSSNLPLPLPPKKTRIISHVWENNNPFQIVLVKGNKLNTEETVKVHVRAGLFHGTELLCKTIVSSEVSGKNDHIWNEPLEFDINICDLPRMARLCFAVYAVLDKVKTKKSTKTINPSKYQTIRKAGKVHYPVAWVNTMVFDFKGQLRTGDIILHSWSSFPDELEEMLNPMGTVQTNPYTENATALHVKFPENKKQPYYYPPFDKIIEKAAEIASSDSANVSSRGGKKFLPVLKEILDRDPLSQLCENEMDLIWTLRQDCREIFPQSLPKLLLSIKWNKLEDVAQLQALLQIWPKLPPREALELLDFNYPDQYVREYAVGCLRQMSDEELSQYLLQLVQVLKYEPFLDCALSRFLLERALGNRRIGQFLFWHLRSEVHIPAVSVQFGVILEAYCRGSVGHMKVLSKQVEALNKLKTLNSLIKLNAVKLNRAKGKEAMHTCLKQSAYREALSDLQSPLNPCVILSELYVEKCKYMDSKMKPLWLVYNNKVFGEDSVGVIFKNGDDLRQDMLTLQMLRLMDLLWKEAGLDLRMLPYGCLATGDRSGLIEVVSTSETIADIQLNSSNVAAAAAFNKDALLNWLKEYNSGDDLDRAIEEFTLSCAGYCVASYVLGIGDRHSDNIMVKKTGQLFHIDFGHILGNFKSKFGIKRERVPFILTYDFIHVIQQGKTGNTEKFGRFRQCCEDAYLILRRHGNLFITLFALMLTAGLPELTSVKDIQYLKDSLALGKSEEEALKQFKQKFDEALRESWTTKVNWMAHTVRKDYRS
Calcium/calmodulin-dependent protein kinase type II subunit delta (Homo sapiens), sequence (Q13557 whole entry): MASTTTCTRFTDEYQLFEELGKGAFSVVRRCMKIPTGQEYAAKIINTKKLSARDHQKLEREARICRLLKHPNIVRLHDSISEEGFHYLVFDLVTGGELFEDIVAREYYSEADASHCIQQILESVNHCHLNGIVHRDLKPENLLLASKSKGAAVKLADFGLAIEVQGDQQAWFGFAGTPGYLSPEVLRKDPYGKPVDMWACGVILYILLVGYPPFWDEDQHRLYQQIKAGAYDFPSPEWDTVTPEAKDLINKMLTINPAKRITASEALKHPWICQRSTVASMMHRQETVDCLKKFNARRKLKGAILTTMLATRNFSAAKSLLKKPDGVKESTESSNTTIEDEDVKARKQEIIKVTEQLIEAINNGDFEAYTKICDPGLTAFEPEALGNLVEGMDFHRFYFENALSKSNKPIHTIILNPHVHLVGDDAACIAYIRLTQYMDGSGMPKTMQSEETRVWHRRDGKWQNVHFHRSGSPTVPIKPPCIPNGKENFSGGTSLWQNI
Serine/threonine-protein kinase LATS2 (Homo sapiens), sequence (Q9NRM7 whole entry): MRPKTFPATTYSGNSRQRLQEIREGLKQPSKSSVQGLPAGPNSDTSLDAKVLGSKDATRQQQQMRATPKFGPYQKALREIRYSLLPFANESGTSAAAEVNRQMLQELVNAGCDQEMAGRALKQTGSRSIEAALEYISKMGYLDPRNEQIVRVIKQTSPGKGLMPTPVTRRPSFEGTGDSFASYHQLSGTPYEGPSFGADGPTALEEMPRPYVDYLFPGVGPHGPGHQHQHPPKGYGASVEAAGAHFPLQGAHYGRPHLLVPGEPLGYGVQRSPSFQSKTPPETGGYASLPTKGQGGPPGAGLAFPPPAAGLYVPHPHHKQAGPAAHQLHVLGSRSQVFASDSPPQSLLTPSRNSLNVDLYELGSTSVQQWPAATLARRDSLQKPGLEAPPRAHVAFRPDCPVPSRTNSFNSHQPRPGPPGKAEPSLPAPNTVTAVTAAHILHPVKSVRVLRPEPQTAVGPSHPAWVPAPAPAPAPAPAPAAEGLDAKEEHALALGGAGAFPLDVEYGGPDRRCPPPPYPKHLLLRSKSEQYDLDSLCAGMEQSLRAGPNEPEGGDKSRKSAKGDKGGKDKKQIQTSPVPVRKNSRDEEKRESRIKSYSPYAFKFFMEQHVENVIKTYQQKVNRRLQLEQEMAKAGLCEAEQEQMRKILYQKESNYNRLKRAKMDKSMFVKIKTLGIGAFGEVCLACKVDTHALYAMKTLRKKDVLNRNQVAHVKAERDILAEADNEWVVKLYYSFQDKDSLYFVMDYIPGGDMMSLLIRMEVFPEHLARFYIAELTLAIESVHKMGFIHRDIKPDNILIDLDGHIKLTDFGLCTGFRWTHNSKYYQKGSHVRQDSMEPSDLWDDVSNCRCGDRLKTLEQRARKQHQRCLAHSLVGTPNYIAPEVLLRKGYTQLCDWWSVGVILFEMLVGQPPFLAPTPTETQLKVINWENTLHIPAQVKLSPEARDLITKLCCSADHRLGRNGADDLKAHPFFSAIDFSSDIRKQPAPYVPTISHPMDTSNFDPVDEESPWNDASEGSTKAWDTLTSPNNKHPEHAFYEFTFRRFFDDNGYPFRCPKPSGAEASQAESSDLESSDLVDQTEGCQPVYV
STE20-like serine/threonine-protein kinase (Homo sapiens), sequence (Q9H2G2 whole entry, looked up): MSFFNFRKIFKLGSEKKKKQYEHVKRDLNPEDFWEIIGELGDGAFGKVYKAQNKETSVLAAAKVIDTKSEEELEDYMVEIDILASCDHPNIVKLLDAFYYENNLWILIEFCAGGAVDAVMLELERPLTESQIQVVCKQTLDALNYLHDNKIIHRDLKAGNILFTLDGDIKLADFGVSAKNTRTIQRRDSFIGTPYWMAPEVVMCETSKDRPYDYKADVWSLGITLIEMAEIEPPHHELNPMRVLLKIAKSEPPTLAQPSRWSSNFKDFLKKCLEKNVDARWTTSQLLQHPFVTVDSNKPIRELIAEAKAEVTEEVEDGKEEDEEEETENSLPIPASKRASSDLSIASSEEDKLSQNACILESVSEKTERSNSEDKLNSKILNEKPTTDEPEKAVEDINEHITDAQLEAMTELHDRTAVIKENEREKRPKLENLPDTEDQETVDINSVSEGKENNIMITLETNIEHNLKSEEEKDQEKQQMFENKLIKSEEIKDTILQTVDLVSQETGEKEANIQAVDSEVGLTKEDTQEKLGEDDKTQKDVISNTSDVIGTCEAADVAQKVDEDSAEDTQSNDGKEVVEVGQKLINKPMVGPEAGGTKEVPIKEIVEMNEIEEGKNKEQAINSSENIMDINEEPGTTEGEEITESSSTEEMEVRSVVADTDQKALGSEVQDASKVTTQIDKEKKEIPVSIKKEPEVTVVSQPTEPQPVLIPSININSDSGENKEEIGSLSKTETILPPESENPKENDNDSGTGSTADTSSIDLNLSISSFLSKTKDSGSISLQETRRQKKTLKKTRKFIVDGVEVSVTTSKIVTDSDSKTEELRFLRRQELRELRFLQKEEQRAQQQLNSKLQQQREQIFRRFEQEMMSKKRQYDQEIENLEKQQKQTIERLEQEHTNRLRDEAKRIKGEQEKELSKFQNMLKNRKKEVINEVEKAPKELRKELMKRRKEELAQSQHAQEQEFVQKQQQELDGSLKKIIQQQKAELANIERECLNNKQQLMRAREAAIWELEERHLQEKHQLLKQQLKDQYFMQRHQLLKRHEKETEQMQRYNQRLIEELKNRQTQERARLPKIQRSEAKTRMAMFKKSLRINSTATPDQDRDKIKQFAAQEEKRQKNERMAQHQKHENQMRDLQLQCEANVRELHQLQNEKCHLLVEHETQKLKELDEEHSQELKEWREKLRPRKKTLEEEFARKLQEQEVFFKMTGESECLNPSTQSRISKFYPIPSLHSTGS
Ribosomal protein S6 kinase alpha-3 (Homo sapiens), sequence (P51812 whole entry, the tested form may be a part): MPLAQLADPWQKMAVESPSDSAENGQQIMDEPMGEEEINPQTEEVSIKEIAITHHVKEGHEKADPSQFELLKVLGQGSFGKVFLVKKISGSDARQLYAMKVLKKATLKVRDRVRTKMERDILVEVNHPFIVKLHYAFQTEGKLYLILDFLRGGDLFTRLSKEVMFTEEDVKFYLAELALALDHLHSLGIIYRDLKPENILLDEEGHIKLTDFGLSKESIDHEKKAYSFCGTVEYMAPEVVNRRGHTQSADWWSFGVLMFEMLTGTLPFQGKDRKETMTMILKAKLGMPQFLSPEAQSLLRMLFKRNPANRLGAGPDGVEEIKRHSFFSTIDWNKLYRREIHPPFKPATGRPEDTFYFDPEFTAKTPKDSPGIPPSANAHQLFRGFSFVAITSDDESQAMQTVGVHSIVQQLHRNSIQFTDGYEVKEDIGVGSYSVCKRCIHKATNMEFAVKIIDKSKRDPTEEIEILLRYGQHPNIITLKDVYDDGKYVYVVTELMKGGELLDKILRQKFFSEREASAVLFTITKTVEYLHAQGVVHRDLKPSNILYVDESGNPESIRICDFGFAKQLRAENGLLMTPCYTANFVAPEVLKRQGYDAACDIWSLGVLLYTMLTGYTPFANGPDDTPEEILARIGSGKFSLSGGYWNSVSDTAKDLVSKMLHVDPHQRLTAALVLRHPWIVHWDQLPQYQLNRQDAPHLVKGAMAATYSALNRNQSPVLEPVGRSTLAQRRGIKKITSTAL

CC(C)n1cc(-c2cc(-c3ccc(CN4CCOCC4)cc3)cnc2N)nn1
inhibition [1]: -0.4%
inhibition [2]: 5.2%
inhibition [3]: -2.3%
inhibition [4]: 7.2%
inhibition (Homo sapiens [5]): 6.9%
inhibition [6]: 21.2%
inhibition [7]: 30.5%
inhibition [8]: -8.2%
inhibition [9]: 14.2%
inhibition [10]: 3%
inhibition [11]: -0.5%
inhibition [12]: 11%
inhibition (Homo sapiens [13]): 25.3%
inhibition [14]: 7.7%
inhibition [15]: 11.3%
inhibition [16]: -9.8%
